One assay concerns p-p38 in HCT-116 cells. The assay can be described thus: Phospho-p38 Meso Scale ELISA assay, TNFα-stimulated HCT-116 cells. The following applies: Homo sapiens, read-out: mean HCT-116 p-p38 ELISA IC50 (Col. C). Format: cell-based. The protocol: Detailed below are ELISA assays for pJNK and p38, and a TAK1 biochemical assay. […] In Table 1, Col.
• 1. Plate HCT-116 cells at 25,000 per well in 100 uL in 96 well clear dishes in normal growth medium. Day 2: • 1. Aspirate medium and replace with 90 μl reduced serum growth medium (1% FCS), incubate for 2 hours at 37° C. • 2. Make drugs at 10× in reduced serum medium and add 10 uL per well. • 3. Incubate at 37° C. for 4 hrs. • 4. Bring capture plates to room temperature. • 5. Block with 150 μl Blocking Solution (provided with kit) (600 mg Blocker A into 20 mL 1× Wash Buffer per plate) at room temperature with shaking. • 6. Wash plates 4× with 200 μl 1× wash buffer (10× provided with kit) before transferring lysates. • 7. Dilute TNFα to […] in reduced serum medium (this makes a 10× working stock). • 8. Add 10 μl TNFα to all wells except negative control wells, final concentration is 10 ng/mL. • 9. Incubate at 37° C. for 10 minutes. • 10. Remove medium by flicking into sink • 11. Wash cells with 100 uL ice cold PBS. • 12. Remove PBS by flicking into sink and patting on paper towels. • 13. Lyse cells in 50 μl ice cold 1× Complete Lysis Buffer plus Phosphatase and Protease inhibitors (all provided with kit) (10 mL Tris Lysis Buffer+200 μl Protease inhibitor solution+100 μl Phosphatase inhibitor I+100 μl Phosphatase inhibitor II). • 14. Incubate with shaking at 4° C. for 30 minutes. • 15. Transfer 45 μl to capture plate, cover with adhesive cover, and incubate at 4° C. over night with shaking. • Day 3: • 1. Wash plates 4× with 200 μl 1× wash buffer (10× provided with kit). • 2. […] Incubate at room temperature with shaking for 1 hour. • 4. Wash 4× with 200 μl 1× Wash Buffer. • 5. […] Read on Sector Imager. Phospho-p38 Meso Scale ELISA Assay Day 1: • 1. Plate HCT-116 cells at 25,000 per well in 100 uL in 96 well clear dishes in normal growth medium. zday 2: • 1. Aspirate medium and replace with 90 μl reduced serum growth medium (1% FCS), incubate for 2 hours at 37° C. • 2. Make drugs at 10× in reduced serum medium and add 10 uL per well. • 3. Incubate at 37° C. for 4 hrs. • 4. Bring capture plates to room temperature. • 5. Block with 150 μl Blocking Solution (provided with kit) (600 mg Blocker A into 20 mL 1× Wash Buffer per plate) at room temperature with shaking. • 6. Wash plates 4× with 200 μl 1× wash buffer (10× provided with kit) before transferring lysates. • 7. Dilute TNFα to […] in reduced serum medium (this makes a 10× working stock). • 8. Add 10 μl TNFα to all wells except negative control wells, final concentration is 10 ng/mL. • 9. Incubate at 37° C. for 10 minutes. • 10. Remove medium by flicking into sink • 11. Wash cells with 100 uL ice cold PBS. • 12. Remove PBS by flicking into sink and patting on paper towels. • 13. Lyse cells in 50 μl ice cold 1× Complete Lysis Buffer plus phosphatase and protease inhibitors (all provided with kit) (10 mL Tris Lysis Buffer+200 μl Protease inhibitor solution+100 μl Phosphatase inhibitor I+100 μl Phosphatase inhibitor II). • 14. Incubate with shaking at 4° C. for 30 minutes. • 15. Dilute lysates before transferring to capture plate with 100 μl Complete p38 Lysate • Dilution Buffer (provided with kit) (10 mL of Diluent 20±200 μl Protease inhibitor solution+100 μl Phosphatase inhibitor I+100 μl Phosphatase inhibitor II). • 16. Transfer 50 μl of diluted lysates to capture plate, cover with adhesive cover, and incubate at 4° C. over night with shaking. Day 3: • 1. Wash plates 4× with 200 μl 1× wash buffer (10× provided with kit). • 2. […] Incubate at room temperature with shaking for 1 hour. • 4. Wash 4× with 200 μl 1× Wash Buffer. • 5. […] Read on Sector Imager. TAK1 Biochemical Assay
On the technique in general: In an ELISA, binding on a coated surface is turned into a signal by an enzyme label.

A further assay deals with T1, TAK1-TAB1 fusion protein (Homo sapiens, UniProt O43318).
T1 construct: purchased Carna
T1 sequence (O43318 with tags, fused parts or gaps limits assumed): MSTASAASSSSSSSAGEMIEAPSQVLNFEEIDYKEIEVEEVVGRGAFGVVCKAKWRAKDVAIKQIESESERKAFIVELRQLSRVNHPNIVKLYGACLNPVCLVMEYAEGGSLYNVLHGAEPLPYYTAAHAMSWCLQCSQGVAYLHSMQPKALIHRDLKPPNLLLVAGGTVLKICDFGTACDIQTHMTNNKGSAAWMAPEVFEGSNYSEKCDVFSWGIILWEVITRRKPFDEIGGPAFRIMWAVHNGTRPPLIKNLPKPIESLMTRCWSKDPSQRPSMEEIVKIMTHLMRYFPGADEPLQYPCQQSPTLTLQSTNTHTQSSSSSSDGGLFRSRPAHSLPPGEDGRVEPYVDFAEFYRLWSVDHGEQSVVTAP
In words: TAK1 biochemical assay (AlphaScreen, GST-MAP2K7 substrate). On the technique in general: Bead proximity is the source of the signal in Alpha formats.

A further assay concerns pJNK in HCT-116 cells. In words: Phospho-JNK (Thr183/Tyr185) Meso Scale ELISA assay, TNFα-stimulated HCT-116 cells. It is filed as cell-based. The following applies: Homo sapiens, read-out: mean HCT-116 pJNK ELISA IC50 (Col. B). Summed up:
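Meso Scale ELISA read of phospho-JNK (Thr183/Tyr185) in lysed HCT-116 cells. Cells were serum-reduced to 1% FCS for 2 hours, exposed to test drug for 4 hrs at 37° C, then given 10 ng/mL TNFα (final) for 10 minutes before lysis.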

[1] abbreviates: TAK1-TAB1 fusion protein, GST-MAP2K7 substrate, read-out: mean TAK1 IC50 (Col. A).

Structures can show the parent of a compound that is named as a salt. Where two headings read alike, the source gives them in different places.

Consider `CN1CCC(n2cc(-c3cnc(N)c4oc(-c5cccc6cnccc56)cc34)cn2)CC1` [Example 77, 2-(isoquinolin-5-yl)-4-[1-(1-methylpiperidin-4-yl)-1H-pyrazol-4-yl]furo[2,3-c]pyridin-7-amine], for which the half-maximal inhibitory concentration (IC50) (usually the concentration needed to halve the response being measured) in the assay on p-p38 in HCT-116 cells is 100 to 1000 nM; at TAK1-TAB1 fusion protein (setting [1]), 100 to 1000 nM; with pJNK in HCT-116 cells, less than 100 nM.
Take `CCSc1ccccc1-c1cc2c(-c3cnn(C4CCN(C(C)=O)CC4)c3)cnc(N)c2o1` [Example 217]: the IC50 with p-p38 in HCT-116 cells, on TAK1-TAB1 fusion protein (setting [1]) and with pJNK in HCT-116 cells was 100 to 1000 nM throughout.
For the molecule `CC(=O)N1CCC(n2cc(-c3cnc(N)c4oc(-c5cccc6[nH]ccc56)cc34)cn2)CC1` [Example 176, 1-(4-{4-[7-amino-2-(1H-indol-4-yl)furo[2,3-c]pyridin-4-yl]-1H-pyrazol-1-yl}piperidin-1-yl)ethanone], the results for the half-inhibitory concentration (IC50) with p-p38 in HCT-116 cells, on TAK1-TAB1 fusion protein (setting [1]) and with pJNK in HCT-116 cells were 100 to 1000 nM, less than 100 nM and 100 to 1000 nM, respectively.
As to `CSc1ccc(-c2cc3c(-c4cnn(C5CCN(C(C)=O)CC5)c4)cnc(N)c3o2)cc1` [Example 113, 1-[4-(4-{7-amino-2-[4-(methylsulfanyl)phenyl]furo[2,3-c]pyridin-4-yl}-1H-pyrazol-1-yl)piperidin-1-yl]ethanone], the IC50 was 1000 to 10000 nM with p-p38 in HCT-116 cells, greater than 10000 nM at TAK1-TAB1 fusion protein (setting [1]) and 1000 to 10000 nM with pJNK in HCT-116 cells.
In the case of `Nc1ncc(-c2cnn([C@H]3CC[C@H](O)CC3)c2)c2cc(-c3cccc4nnsc34)oc12` [Example 229, trans-4-{4-[7-amino-2-(1,2,3-benzothiadiazol-7-yl)furo[2,3-c]pyridin-4-yl]-1H-pyrazol-1-yl}cyclohexanol], the concentration for half-maximal inhibition (IC50) in the assay with p-p38 in HCT-116 cells, on TAK1-TAB1 fusion protein and in the assay on pJNK in HCT-116 cells was less than 100 nM throughout.
Regarding `CC(=O)N1CCC(n2cc(-c3cnc(N)c4oc(-c5ccc6c(c5)CCC(=O)N6)cc34)cn2)CC1` [Example 154, 6-{4-[1-(1-acetylpiperidin-4-yl)-1H-pyrazol-4-yl]-7-aminofuro[2,3-c]pyridin-2-yl}-3,4-dihydroquinolin-2(1H)-one], the IC50 with p-p38 in HCT-116 cells was 1000 to 10000 nM; at TAK1-TAB1 fusion protein (setting [1]) it was 100 to 1000 nM; with pJNK in HCT-116 cells, 1000 to 10000 nM.
As for `C[C@]1(O)CC[C@@H](n2cc(-c3cnc(N)c4oc(-c5cccc6cnccc56)cc34)cn2)CC1` [Example 76, cis-4-{4-[7-amino-2-(isoquinolin-5-yl)furo[2,3-c]pyridin-4-yl]-1H-pyrazol-1-yl}-1-methylcyclohexanol], the concentration for half-maximal inhibition (IC50) with p-p38 in HCT-116 cells, on TAK1-TAB1 fusion protein (setting [1]) and in the assay on pJNK in HCT-116 cells was 100 to 1000 nM in each case.
Regarding `CC(=O)N1CCC(n2cc(-c3cnc(N)c4oc(-c5ccc6[nH]ccc6c5)cc34)cn2)CC1` [Example 92, 1-(4-{4-[7-amino-2-(1H-indol-5-yl)furo[2,3-c]pyridin-4-yl]-1H-pyrazol-1-yl}piperidin-1-yl)ethanone], the 50% inhibitory concentration (IC50) lay in the range of 100 to 1000 nM in the assay on p-p38 in HCT-116 cells, 1000 to 10000 nM on TAK1-TAB1 fusion protein (setting [1]) and 100 to 1000 nM in the assay with pJNK in HCT-116 cells.
As to `Cc1sc2cnccc2c1-c1cc2c(-c3cnn([C@H]4CC[C@H](O)CC4)c3)cnc(N)c2o1` [Example 252, trans-4-{4-[7-amino-2-(2-methylthieno[2,3-c]pyridin-3-yl)furo[2,3-c]pyridin-4-yl]-1H-pyrazol-1-yl}cyclohexanol trifluoroacetate], the IC50 in the assay with p-p38 in HCT-116 cells and at TAK1-TAB1 fusion protein (setting [1]) was 100 to 1000 nM each time.
For `Nc1ncc(-c2cnn([C@H]3CC[C@H](O)CC3)c2)c2cc(-c3cccn4cncc34)oc12` [Example 365, trans-4-{4-[7-amino-2-(imidazo[1,5-a]pyridin-8-yl)furo[2,3-c]pyridin-4-yl]-1H-pyrazol-1-yl}cyclohexanol.diformate], the IC50 at TAK1-TAB1 fusion protein (setting [1]) and in the assay on pJNK in HCT-116 cells was less than 100 nM throughout.
Consider `CNc1ncc(-c2cnn([C@H]3CC[C@H](O)CC3)c2)c2cc(-c3csc4cnc(F)cc34)oc12` [Example 283, trans-4-{4-[2-(5-fluorothieno[2,3-c]pyridin-3-yl)-7-(methylamino)furo[2,3-c]pyridin-4-yl]-1H-pyrazol-1-yl}cyclohexanol], for which the IC50 at TAK1-TAB1 fusion protein (setting [1]) and with pJNK in HCT-116 cells was less than 100 nM each time.
